Results from patent US20100015245A1, “Combination of Copper Cations with Peroxides or Quaternary Ammonium Compounds for the Treatment of Biofilms” (priority 2008, published 2010).
Several values for one entry are separate records, joined by “and”; a condition that tells them apart may be missing. Equal values may be shown once. Read-outs that look alike come from different tables or passages of the source.

Legend:
[1] = tested on: P. aeruginosa ATCC 15442 biofilms; experiment: High-throughput biofilm susceptibility screening with checkerboard plates (Calgary Biofilm Device), OD650 endpoint; type: cell-based, Pseudomonas aeruginosa
[2] = tested on: P. aeruginosa ATCC 27853 biofilms; experiment: Confocal-laser scanning microscopy (CLSM) with Live/Dead staining of biofilms; type: cell-based, Pseudomonas aeruginosa; settings: 8 mM Cu^2+ and/or 200 ppm Polycide®, qualitative
Experimental: Confocal-laser scanning microscopy (CLSM). Pegs were broken from the lid of the CBD using needle nose pliers. Cell viability staining of P. aeruginosa ATCC 27853 biofilms using the Live/Dead® BacLight™ Kit (Molecular Probes, Burlington, ON, Canada) was carried out according to the method as previously described (Harrison et al., 2007). Here, biofilms exposed to metals and/or biocides were rinsed twice with 0.9% saline and then stained with Syto-9 and propidium iodide at 30° C. for 30 min. Fluorescently labeled biofilms were placed in two drops of 0.9% saline on the surface of a glass coverslip. These pegs were examined using a Leica DM IRE2 spectral confocal and multiphoton microscope with a Leica TCS SP2 acoustic optical beam splitter (AOBS) (Leica Microsystems, Richmond Hill, ON, Canada) as previously described (Harrison el al., 2007). To eliminate artefacts associated with single wavelength excitation, Live/Dead® stained samples were sequentially scanned, frame-by-frame, first at 488 nm and then at 543 nm. Fluorescence emission was then sequentially collected in the green and red regions of the spectrum. […]
Up to this point, the inventors have assessed the antimicrobial action of Cu^2+ and Polycide® using viable cell counting; however, there is an alternate method of assessing biofilm cell survival: CLSM in conjunction with Live/Dead® staining. […]

[3] = tested on: microaerobic cultures of P. aeruginosa ATCC 15442; experiment: Cell survival of microaerobic (anaerobic) planktonic cultures; type: cell-based, Pseudomonas aeruginosa; settings: 1 mM CuSO4 and/or 25 ppm Polycide®, 48 h at 37° C., BHI broth
Experimental: (§1) FIGS. 6A-C. Cell survival and nitrate (NO3) reduction by anaerobic P. aeruginosa ATCC 15442 cultures grown in the presence of Cu^2+ and Polycide®, alone and in combination. An aerobic starter culture was grown overnight in TSB and this was diluted 1 in 500 to get a starting cell count of 1×10^7 CFU/mL for anaerobic cultures. These cells were grown in BHI broth, with and without the addition of 1 mM KNO3, for 6 h prior to the addition of 1 mM CuSO4, 25 ppm Polycide , or 1 mM CuSO4+25 ppm Polycide®. Following an additional 48 h incubation at 37° C., aliquots were removed to determine (FIG. 6A) mean viable cell counts and (FIG. 6B) log-killing. Remaining cells from anaerobic cultures were lysed and fractionated into cytosolic and membrane components. The cytosolic components were assayed for (FIG. 6C) nitrate reductase (NR) activity. In this figure, each bar represents the mean and standard deviation of 3 to 8 independent replicates. NR activity calculations were corrected for baseline shifts in spectrophotometric measurements caused by the presence of oxygen in water, which reacts with reduced methyl viologen over time.
Strains and growth media. All of the microbial strains used in this study are summarized in TABLE 1 and all were stored at −70° C. in Microbank™ vials (ProLab Diagnostics, Toronto, Canada) according to the manufacturer's directions. […]

nitrate reductase (NR) = experiment: Nitrate reductase activity of cytosolic fractions of treated cultures (methyl viologen assay); type: biochemical, Pseudomonas aeruginosa; settings: cells grown with 1 mM CuSO4 and/or 25 ppm Polycide®
Experimental: as §1
Protein fractionation and nitrate reduction assays. […] Nitrate reductase activity was determined spectrophotometrically at 575 nm for cytoplasmic fractions, using methyl viologen as an electron donor, as previously described (Jones et al., 1977; Magalon et al., 1998).

[4] = 5 min exposure, double distilled water, single agent, median
[5] = 30 min exposure, double distilled water, single agent, median
[6] = 24 h exposure, 10% tryptic soy broth/0.9% NaCl, single agent, median

SMILES	Biofilm minimum bactericidal concentration (MBCb) [1, 4]	Biofilm minimum bactericidal concentration (MBCb) [1, 5]	Biofilm minimum bactericidal concentration (MBCb) [1, 6]	Biofilm minimum bactericidal concentration (MBCb) [1]	Bacterial cell survival in biofilms by Live/Dead staining [2]	Effect on microaerobic cultures (viable cell counts, log-killing) [3]	Nitrate reduction capacity / NR activity of cell lysates (nitrate reductase (NR))
O=[N+]([O-])[O-].[Ag+] [Ag^+, silver nitrate]	>19 mM	>19 mM	>19 mM				
O=S(=O)([O-])[O-].[Cu+2] [Cu^2+, cupric sulfate]				>32 mM and 32 mM	killed a significant portion of the bacterial population	bacteriostatic	significantly reduced capacity for nitrate reduction
CC(C)O [Isopropyl Alcohol, Isopropyl alcohol]	0.50%	0.50%	0.50%				
O=[Se]([O-])[O-].[Na+].[Na+] [SeO3^2−, Sodium selenite]	>16 mM	>16 mM	>16 mM				
O=S(=O)([O-])[O-].[Zn+2] [Zn^2 +, zinc sulfate]				>31 mM			
